Measurements taken from US7829560B2, “1,4-disubstituted naphthalenes as inhibitors of P38 MAP kinase” (Arqule, Inc., priority 2004, dated 2010).

What was measured:
[1] = target: T1, p38α (Homo sapiens, UniProt Q16539); assay: p38 MAP Kinase assay: inhibition of ATF2 phosphorylation, ELISA; type: biochemical; conditions: for IC50: ATF2 phosphorylation, read-out: [ENZ] P38 ALPHA, IC50, ELISA
T1 construct: p38 MAP Kinases are recombinant human full-length proteins with an amino-terminal GST fusion; GST (N); purchased Upstate Biotechnology Inc; host or cells: E. coli
Outline: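 GST-tagged full-length human p38 MAP kinase with GST-ATF2 (aa 19–96; 1.25 μM) and 40 μM ATP in HEPES pH 7.5 buffer, without (Method I) or with (Method II) 1% human serum albumin. Compound pre-incubated 15 min at room temperature; reaction 30 min at 37 °C; ATF2 Thr69 phosphorylation measured by ELISA (A450).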

[2] = system: TNFα release from THP-1 cells; assay: Inhibition of TNFα release from LPS-stimulated THP-1 cells, ELISA; type: cell-based; conditions: Homo sapiens, THP-1, THP-1 cells, read-out: [CELL] THP-1, IC50, TNF ALPHA, ELISA
Outline: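 Human THP-1 monocytes, 10^6 cells/ml in RPMI with 10% FBS, no serum or 1% HSA, preincubated 30 min at 37 °C with compound (≤0.5% DMSO), then stimulated with 10 μg/ml LPS for 18 h. Supernatant TNFα measured by ELISA; IC50 from non-linear dose-response regression.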

T1 sequence (Q16539 whole entry, the tested form may be a part): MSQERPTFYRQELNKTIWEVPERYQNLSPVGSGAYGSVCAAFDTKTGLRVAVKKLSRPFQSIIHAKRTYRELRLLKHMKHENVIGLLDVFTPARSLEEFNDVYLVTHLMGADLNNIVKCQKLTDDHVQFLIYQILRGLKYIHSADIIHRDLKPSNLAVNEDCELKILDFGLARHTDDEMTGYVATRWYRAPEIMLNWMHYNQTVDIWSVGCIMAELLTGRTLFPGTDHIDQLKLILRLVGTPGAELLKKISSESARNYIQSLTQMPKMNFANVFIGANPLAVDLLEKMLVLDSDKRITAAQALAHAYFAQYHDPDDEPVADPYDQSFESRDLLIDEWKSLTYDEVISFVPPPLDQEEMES

| SMILES | IC50 [1] | melting point | IC50 [2] | inhibition at 10 µM ([1]; 10 uM, substrate ATF2, read-out: [ENZ] P38 ALPHA, PCT INH, ELISA (10 uM;ATF2) (Percent)) |
| --- | --- | --- | --- | --- |
| O=C(Nc1ccc(OCCN2CCOCC2)c2ccccc12)c1cccc(N2CCCCC2)c1 [Compound B48, N-[4-(2-Morpholin-4-yl-ethoxy)-naphthalen-1-yl]-3-piperidin-1-yl-benzamide] | 464 nM | 147 to 148 °C | 7650 nM | – |
| CN(C)[C@@H]1CCN(c2nccc(Oc3ccc(NC(=O)c4cc(F)cc(N5CCOCC5)c4)c4ccccc34)n2)C1 [Compound B342, N-[4-({2-[(3R)-3-(dimethylamino)pyrrolidin-1-yl]pyrimidin-4-yl}oxy)-1-naphthyl]-3-fluoro-5-morpholin-4-ylbenzamide] | 22.3 nM | 115 to 117 °C | 61.5 nM | – |
| CSc1nccc(Oc2ccc(NC(=O)c3cccc(OC(C)(C)C)c3)c3ccccc23)n1 [Compound B306, 3-tert-Butoxy-N-[4-(2-methylsulfanyl-pyrimidin-4-yloxy)-naphthalen-1-yl]-benzamide] | 74.5 nM | 135 to 136 °C | 152 nM | – |
| CN(CC1OCCO1)c1nccc(Oc2ccc(NC(=O)c3cc(F)cc(N4CCOCC4)c3)c3ccccc23)n1 [Compound B349, N-[4-({2-[(1,3-Dioxolan-2-ylmethyl)(methyl)amino]pyrimidin-4-yl}oxy)-1-naphthyl]-3-fluoro-5-morpholin-4-ylbenzamide] | 18.7 nM | 111 to 112 °C | 74.7 nM | – |
| O=C(Nc1ccc(OCCN2CCOCC2)c2ccccc12)c1cccc(-n2cccc2)c1 [Compound B57, N-[4-(2-Morpholin-4-yl-ethoxy)-naphthalen-1-yl]-3-pyrrol-1-yl-benzamide] | 1190 nM | 142 to 143 °C | 2650 nM | – |
| O=C(Nc1ccc(Oc2ccnc(N3CCCC3)n2)c2ccccc12)c1cc(F)cc(N2CCOCC2)c1 [Compound B334, 3-Fluoro-5-morpholin-4-yl-N-{4-[(2-pyrrolidin-1-ylpyrimidin-4-yl)oxy]-1-naphthyl}benzamide] | 8.2 nM | 205 to 207 °C | 276 nM | – |
| CC1CCC(Nc2nccc(Oc3ccc(NC(=O)c4cc(F)cc(N5CCOCC5)c4)c4ccccc34)n2)CC1 (stereo not shown) [Compound B337, 3-Fluoro-N-[4-({2-[(4-methylcyclohexyl)amino]pyrimidin-4-yl}oxy)-1-naphthyl]-5-morpholin-4-ylbenzamide] | 33.3 nM | 116 to 117 °C | 65.6 nM | – |
| CC1CCN(c2cc(F)cc(C(=O)Nc3ccc(OCCN4CCOCC4)c4ccccc34)c2)CC1 [Compound B184, 3-Fluoro-5-(4-methylpiperidin-1-yl)-N-[4-(2-morpholin-4-ylethoxy)-1-naphthyl]benzamide] | 1070 nM | 116 to 118 °C | 6990 nM | – |
| O=C(Nc1ccc(OCCN2CCOCC2)c2ccccc12)c1cc(N2CCOCC2)ncn1 [Compound B54, 6-Morpholin-4-yl-pyrimidine-4-carboxylic acid [4-(2-morpholin-4-yl-ethoxy)-naphthalen-1-yl]-amide] | > 10000 nM | 50 to 51 °C | > 10000 nM | – |
| Cc1ncsc1CCOc1ccc(NC(=O)c2cc(F)cc(N3CCOCC3)c2)c2ccccc12 [Compound B231, 3-Fluoro-N-{4-[2-(4-methyl-1,3-thiazol-5-yl)ethoxy]-1-naphthyl}-5-morpholin-4-ylbenzamide] | 27.7 nM | 186 to 187 °C | 193 nM | – |
| CSc1nccc(Oc2ccc(NC(=O)c3cc(F)cc(N4CCCC4)c3)c3ccccc23)n1 [Compound B264, 3-Fluoro-N-(4-{[2-(methylthio)pyrimidin-4-yl]oxy}-1-naphthyl)-5-pyrrolidin-1-ylbenzamide] | 189 nM | 180 to 181 °C | 177 nM | – |
| O=C(Nc1ccc(Oc2ccnc(NCCN3CCCC3)n2)c2ccccc12)c1cc(F)cc(N2CCOCC2)c1 [Compound B338, 3-Fluoro-5-morpholin-4-yl-N-[4-({2-[(2-pyrrolidin-1-ylethyl)amino]pyrimidin-4-yl}oxy)-1-naphthyl]benzamide] | 17.1 nM | 95 to 97 °C | 60.9 nM | – |
| O=C(Nc1ccc(Oc2ccnc(NC3CCS(=O)(=O)C3)n2)c2ccccc12)c1cc(F)cc(N2CCOCC2)c1 (stereo not shown) [Compound B347, N-[4-({2-[(1,1-Dioxidotetrahydro-3-thienyl)amino]pyrimidin-4-yl}oxy)-1-naphthyl]-3-fluoro-5-morpholin-4-ylbenzamide] | 13.9 nM | 150 to 151 °C | 42.2 nM | – |
| O=C(Nc1ccc(OCCCN2CCCC2=O)c2ccccc12)c1cc(F)cc(N2CCCCC2)c1 [Compound B182, 3-Fluoro-N-{4-[3-(2-oxopyrrolidin-1-yl)propoxy]-1-naphthyl}-5-piperidin-1-ylbenzamide] | 587 nM | 88 to 89 °C | > 10000 nM | – |
| O=C(Nc1ccc(OCc2ccncc2)c2ccccc12)c1cc(F)cc(N2CCCCC2)c1 [Compound B230, 3-Fluoro-5-piperidin-1-yl-N-[4-(pyridin-4-ylmethoxy)-1-naphthyl]benzamide] | 25.7 nM | 69 to 71 °C | 630 nM | – |
| O=C(Nc1ccc(OCCCN2CCOCC2)c2ccccc12)c1cc(F)cc(N2CCCCC2)c1 [Compound B161, 3-Fluoro-N-[4-(3-morpholin-4-yl-propoxy)-naphthalen-1-yl]-5-piperidin-1-yl-benzamide] | 1100 nM | 70 to 72 °C | > 10000 nM | 84% |

Further lines, results first:

| IC50 [1] | melting point | IC50 [2] | inhibition at 10 µM ([1]; 10 uM, substrate ATF2, read-out: [ENZ] P38 ALPHA, PCT INH, ELISA (10 uM;ATF2) (Percent)) | SMILES |
| --- | --- | --- | --- | --- |
| 1.7 nM | 96 to 98 °C | 23.5 nM | – | O=C(Nc1ccc(Oc2ccnc(NCC3OCCO3)n2)c2ccccc12)c1cc(F)cc(N2CCCCC2)c1 [Compound B411, N-[4-({2-[(1,3-Dioxolan-2-ylmethyl)amino]pyrimidin-4-yl}oxy)-1-naphthyl]-3-fluoro-5-piperidin-1-ylbenzamide] |
| 87.8 nM | 145 to 146 °C | 590 nM | – | CC1CCN(c2nccc(Oc3ccc(NC(=O)c4cc(F)cc(N5CCCCC5)c4)c4ccccc34)n2)CC1 [Compound B381, 3-Fluoro-N-(4-{[2-(4-methylpiperidin-1-yl)pyrimidin-4-yl]oxy}-1-naphthyl)-5-piperidin-1-ylbenzamide] |
| 9.5 nM | 115 to 117 °C | 68.1 nM | – | O=C(Nc1ccc(Oc2ccnc(NC3(CO)CCCC3)n2)c2ccccc12)c1cc(F)cc(N2CCOCC2)c1 [Compound B350, 3-Fluoro-N-{4-[(2-{[1-(hydroxymethyl)cyclopentyl]amino}pyrimidin-4-yl)oxy]-1-naphthyl}-5-morpholin-4-ylbenzamide] |
| 111 nM | 172 to 174 °C | 773 nM | – | O=C(Nc1ccc(Oc2ccnc(N3CCC(F)(F)CC3)n2)c2ccccc12)c1cc(F)cc(N2CCCCC2)c1 [Compound B423, N-(4-{[2-(4,4-Difluoropiperidin-1-yl)pyrimidin-4-yl]oxy}-1-naphthyl)-3-fluoro-5-piperidin-1-ylbenzamide] |
| 50.2 nM | 174 to 176 °C | 472 nM | – | C[C@@H]1CN(c2nccc(Oc3ccc(NC(=O)c4cc(F)cc(N5CCCCC5)c4)c4ccccc34)n2)C[C@H](C)O1 [Compound B416, N-[4-({2-[(2R,6S)-2,6-Dimethylmorpholin-4-yl]pyrimidin-4-yl}oxy)-1-naphthyl]-3-fluoro-5-piperidin-1-ylbenzamide] |
| 32.5 nM | 97 to 98 °C | 518 nM | – | C#CCN(C)c1nccc(Oc2ccc(NC(=O)c3cc(F)cc(N4CCOCC4)c3)c3ccccc23)n1 [Compound B352, 3-Fluoro-N-[4-({2-[methyl(prop-2-yn-1-yl)amino]pyrimidin-4-yl}oxy)-1-naphthyl]-5-morpholin-4-ylbenzamide] |
| 6.3 nM | 117 to 119 °C | 90.3 nM | – | O=C(Nc1ccc(Oc2ccnc(NCC3CC3)n2)c2ccccc12)c1cc(F)cc(N2CCCCC2)c1 [Compound B384, N-[4-({2-[(cyclopropylmethyl)amino]pyrimidin-4-yl}oxy)-1-naphthyl]-3-fluoro-5-piperidin-1-ylbenzamide] |
| 48.3 nM | 135 to 136 °C | 254 nM | – | COC(CN(C)c1nccc(Oc2ccc(NC(=O)c3cc(F)cc(N4CCCCC4)c3)c3ccccc23)n1)OC [Compound B403, N-[4-({2-[(2,2-Dimethoxyethyl)(methyl)amino]pyrimidin-4-yl}oxy)-1-naphthyl]-3-fluoro-5-piperidin-1-ylbenzamide] |
| 8.4 nM | 182 to 184 °C | 217 nM | – | CN1CCN(c2nccc(Oc3ccc(NC(=O)c4cc(F)cc(N5CCCCC5)c4)c4ccccc34)n2)CC1 [Compound B372, 3-Fluoro-N-(4-{[2-(4-methylpiperazin-1-yl)pyrimidin-4-yl]oxy}-1-naphthyl)-5-piperidin-1-ylbenzamide] |
| 7.1 nM | 94 to 95 °C | 122 nM | – | COCC(C)Nc1nccc(Oc2ccc(NC(=O)c3cc(F)cc(N4CCCCC4)c3)c3ccccc23)n1 (stereo not shown) [Compound B392, 3-Fluoro-N-[4-({2-[(2-methoxy-1-methylethyl)amino]pyrimidin-4-yl}oxy)-1-naphthyl]-5-piperidin-1-ylbenzamide] |
